According to patent US5681823A, “P^1, P^4 -dithio-P^2 -P^3 -monochloromethylene 5', 5'"-diadenosine P^1, P^4 -tetraphosphate as antithrombotic agent” (PRP Inc., priority 1996, dated 1997):
Where two headings read alike, the source gives them in different places.

How the values were obtained:
[1] = tested on: ADP-induced platelet aggregation; assay: Inhibition kinetic study, ADP-induced platelet aggregation; type: cell-based, human
Procedure: Unless otherwise provided below, the experimental procedures were performed according to the procedures provided in U.S. Pat. No. 5,049.550 (Zamecnik '550), the entire contents of which are incorporated herein by reference. Some alternative procedures (e.g., release reaction, PF3 assays) and a number of additional studies also are provided (e.g., cytoplasmic calcium mobilization, fibrinogen binding site, agonists other than ADP, platelet cAMP and distribution of CHCl-AP4 A into blood components). Blood was collected in a 0.1 volume of 3.8% sodium citrate from healthy human volunteers who had abstained from antiplatelet agents for at least 10 days. Platelet rich plasma (PRP) was separated by a gradual centrifugation and adjusted to 3.3×10^8 platelets per ml plasma. PRP has been utilized in the Examples unless otherwise stated.
An initial screening was performed for inhibitory effects of several agents (including, e.g., thio-CHCl-AP4 A and CHCl-AP4 A as reference agent)) on platelet aggregation induced by ADP. Platelet aggregation was measured with platelet-rich plasma (PKP) by the turbidimetric method of Born (J. Physiol. 162:67, 1962) in an aggregometer (Chrono-log, Model 530 VS). Platelet aggregation induced by 5 μM ADP in the absence or presence of 5 μM agents was examined. […]

Erythrocytes = assay: Distribution of ^125 I-labeled CHCl-AP4 A into blood cell fractions: erythrocytes; type: binding, human
Procedure: (§1) There are, however, a variety of purinoceptors on other cell types. AP4 A analogues may bind not only to platelets but also to the erythrocytes and leukocytes when whole blood is treated with the agents. […] Platelets were separated by a gradual centrifugation, the packed red cells with buffy coats (leukocytes) were mixed, and fractionated by means of histopaque gradient separation (A. Boyum, Scand J. Clin. Lab. Invest. 21(suppl 97):77 (1968)). The cell fractions were washed twice and final suspensions were counted for cell number and the radioactivity. Percent distribution was calculated based on the CBC data of whole blood. Binding sites are expressed in the values per cells.

Leukocytes = assay: Distribution of ^125 I-labeled CHCl-AP4 A into blood cell fractions: leukocytes; type: binding, human
Procedure: as §1

Platelets = assay: Distribution of ^125 I-labeled CHCl-AP4 A into blood cell fractions: platelets; type: binding, human
Procedure: as §1

[2] = Distribution of ^125 I-labeled CHCl-AP4 A: plasma & washes; type: binding, human; conditions: 23 μM, 22° C., 30 minutes; mean of two
Procedure: as §1

[3] = tested on: ADP-induced platelet aggregation; conditions: Zamecnik '550 Table 3, read-out: ID50 (the source's name); cited from earlier work
[4] = tested on: ADP-induced platelet aggregation; conditions: reference agent, kinetic study demonstrated previously (PNAS 1992); read-out: inhibition constant (Ki); cited from earlier work
[5] = 23 μM, 22° C., 30 minutes, mean of two

SMILES	nature of inhibition [1]	Ki ([1]; ADP-induced aggregation, read-out: inhibition constant (Ki))	Distribution (%) (Erythrocytes; [5])	Binding Sites (Erythrocytes; gross estimation per cell)	binding sites per surface area, relative value (Erythrocytes; relative, erythrocytes)	Distribution (%) (Leukocytes; [5])	Binding Sites (Leukocytes; gross estimation per cell)	binding sites per surface area, relative value (Leukocytes; relative, leukocytes)	Distribution (%) (Platelets; [5])	Binding Sites (Platelets; gross estimation per cell)	binding sites per surface area, relative value (Platelets; relative, platelets)	Distribution (%) [2]	IC50 [3]	Ki [4]
Nc1ncnc2c1ncn2[C@@H]1O[C@H](COP(O)(=S)OP(=O)(O)C(Cl)P(=O)(O)OP(O)(=S)OC[C@H]2O[C@@H](n3cnc4c(N)ncnc43)[C@H](O)[C@@H]2O)[C@@H](O)[C@H]1O (some centres unmarked) [Thio-CHCl-AP4 A, P^1, P^4 -dithio -P^2 -P^3 monochloromethylene 5', 5'" diadenosine P^1, P^4 -tetraphosphate]	competitive inhibition	330 nM	–	–	–	–	–	–	–	–	–	–	–	–
Nc1ncnc2c1ncn2[C@@H]1O[C@H](COP(=O)(O)OP(=O)(O)C(Cl)P(=O)(O)OP(=O)(O)OC[C@H]2O[C@@H](n3cnc4c(N)ncnc43)[C@H](O)[C@@H]2O)[C@@H](O)[C@H]1O (some centres unmarked) [CHCl-AP4 A]	–	–	2.09%	5.98 × 10^4 per cells	1	1.94%	7.39 × 10^7 per cells	1000	0.55%	3.08 × 10^5 per cells	100	95.5%	3000 nM	1100 nM
